Experimental findings from patent US20100266503A1, “Breast Cancer Methods, Medicaments and Agents” (priority 2007, published 2010) are described below.

Assay type in all cases: cell-based
In assay [1] the test system is MDA-MB-231, T47-D and MCF-7 breast cancer cell lines. Briefly: Proliferation of breast cancer cell lines treated with GSIs for 72 h, Coulter Counter cell count. The settings on record: tested 10 nM to 50 μM. As to the method: Graphs illustrating the effects of three GSIs: (A) DAPT (N-[N-(3,5-Difluorophenacetyl-L-alanyl)]-S-phenylglycine t-butyl ester), (B) Compound E ((2S)-2-{[(3,5-Difluorophenyl)acetyl]amino}-N-[(3S)-1-methyl-2-oxo-5-phenyl-2,3-dihydro-1H-1,4-benzodiazepin-3-yl]propanamide) and (C) GSI1 (Z-Leu-Leu-Nle-CHO) on proliferation in three breast cancer cell lines (MDA-MB-231, T47-D and MCF-7 cells). Cells were treated with the GSIs at different concentrations for 72 hours and the number of cells counted.
FIG. 6 illustrates the effect of three GSIs, DAPT, Compound E and GSI1 on proliferation in three breast cancer cell lines, MDA-MB-231 [Oestrogen receptor (ER) negative, epidermal growth factor receptor (EGFR) and HER-2 strongly positive, increasingly metastatic T47-D-MCF-MDA], T47-D [weakly ER positive, progesterone receptor positive, strongly EGFR (HER-1, cERB-B1) positive and HER-2(c-ERB-B2) positive] and MCF-7 [highly ER positive and very weakly EGFR and HER-2 positive if at all]. The breast cancer cell lines were treated with the 3 GSIs for 72 h. 20,000 cells were seeded into 24 well plates in triplicate and allowed to adhere overnight. […] After 72 hours the media was removed and the adherent cells removed and counted on a Coulter Counter. […]

Assay [2] concerns notch intracellular domain in MCF-7 cells. Briefly: Staining for notch intracellular domain expression (surrogate marker for GS activity). The conditions noted are these: 48 hours; Gefitinib 15 μM, U0126 10 μM, PD98059 10 μM. The source says: (A) GS activity as measured by a fluorescent assay in MCF7 breast cancer cell lines and MCF10A normal cell lines, with and without treatment with the ERK1/2 inhibitor U0126. (B) Sections of MCF7 breast cancer cell lines stained for notch intracellular domain expression (as a surrogate marker for GS activity). Shown are sections of cells untreated (NO), and cells treated with oestrogen (E2), faslodex (FAS), Gefitinib (Gef), GSI1, and the ERK1/2 inhibitors U0126 (U) and. PD98059 (PD). (C) Sections of MCF10A normal cell lines stained for notch intracellular domain expression. Shown are sections of cells untreated (NO), and cells treated with Gefitinib (Gef) and PD98059 (PD).
Cancer and normal cell lines were treated with oestrogen (E2), faslodex (FAS), Gefitinib (Gef 15 μM), GSI1, and the ERK1/2 inhibitors U0126 (U) (10 μM) and PD98059 (PD) (10 μM) for 48 hours and a fluorescent assay performed to measure GS activity. The figures show relative fluorescence therefore the amount of fluorescence in the treated cells relative to the untreated minus background (these figures are corrected for background).

Assay [3] concerns Hes1 transcriptional activity (Notch target gene). In words: CSL (Hes-1) Luciferase reporter assay upon GSI1 treatment. The conditions noted are these: 750 nM, 2 microM, 5 microM; 24 h. As to the method: For the Luciferase based reporter assay, 5×10^4 cells were plated in 48 well plates and allowed to adhere over night. The following day, cells were transfected with 200 ng of the 23A plasmid (Hes-1 reporter). 24 h after transfection, transfection media was evacuated and replaced with treatment media (750 nM, 2 microM, 5 microM of the GSI1 and a vehicle treated control). Cells were incubated for 24 h at 37 C. At the 24 h time point the Dual Glow (Promega) Luciferase Kit was implemented according to manufacturer's protocol).

Non-standard residues stand in square brackets, D forms with d. Residues, ends and D or L forms follow the SMILES beside them. *: point of attachment. Nle = CCCC[C@H](N)C(=O)O; Cbz = O=C(OCc1ccccc1)*

With `CCCC[C@@H](C=O)NC(=O)[C@H](CC(C)C)NC(=O)[C@H](CC(C)C)NC(=O)OCc1ccccc1` [GSI1, Z-Leu-Leu-Nle-CHO] (Cbz-Leu-Leu-[Nle]-aldehyde), the “concentration that virtually eliminates all the cells” value in assay [1] came out at 1 µM. Further, the “notch intracellular domain expression localized to the nucleus compared to untreated cells” value in assay [2] was “appear to increase notch intracellular domain expression localized to the nucleus”. The “Hes1 reporter (Luciferase) activity” value in assay [3] is “dose dependant decrease of the reporter activity”.
